± gives the expanded uncertainty stated by the source.
Conditions: for mass density: Liquid, Vibrating tube method; for specific volume: Gas, isochoric method

FC(F)(F)/C=C/Cl [(E)-1-chloro-3,3,3-trifluoroprop-1-ene]
Conditions	mass density [kg/m3]	specific volume [m3/kg]
283.14 K, 29999 kPa	1358.6 ± 1	–
283.15 K, 133 kPa	1297.8 ± 0.8	–
283.15 K, 500 kPa	1298.7 ± 0.8	–
283.15 K, 5000 kPa	1309.8 ± 0.9	–
283.15 K, 10000 kPa	1321 ± 0.9	–
283.15 K, 15000 kPa	1331.4 ± 0.9	–
283.15 K, 20000 kPa	1341.1 ± 0.9	–
283.15 K, 35000 kPa	1366.8 ± 1.1	–
283.16 K, 1000 kPa	1300 ± 0.8	–
283.16 K, 2500 kPa	1303.7 ± 0.8	–
283.16 K, 25000 kPa	1350.1 ± 1	–
293.14 K, 499 kPa	1275.3 ± 0.8	–
293.14 K, 1000 kPa	1276.7 ± 0.8	–
293.14 K, 2500 kPa	1280.9 ± 0.8	–
293.14 K, 5000 kPa	1287.6 ± 0.8	–
293.14 K, 15000 kPa	1311.3 ± 0.9	–
293.14 K, 20000 kPa	1321.7 ± 0.9	–
293.14 K, 35000 kPa	1349.2 ± 1	–
293.15 K, 151 kPa	1274.3 ± 0.8	–
293.15 K, 9999 kPa	1299.9 ± 0.9	–
293.15 K, 25000 kPa	1331.4 ± 1	–
293.16 K, 30000 kPa	1340.6 ± 1	–
303.15 K, 250 kPa	1250.3 ± 0.8	–
303.15 K, 501 kPa	1251.2 ± 0.8	–
303.15 K, 1001 kPa	1252.7 ± 0.8	–
303.15 K, 2499 kPa	1257.4 ± 0.8	–
303.15 K, 5000 kPa	1264.8 ± 0.8	–
303.15 K, 35000 kPa	1331.1 ± 1	–
303.16 K, 10001 kPa	1278.4 ± 0.9	–
303.16 K, 15003 kPa	1290.7 ± 0.9	–
303.16 K, 20002 kPa	1301.9 ± 0.9	–
303.16 K, 25001 kPa	1312.3 ± 0.9	–
303.16 K, 30000 kPa	1322 ± 1	–
308.15 K, 167 kPa	–	0.11 ± 0.0005
313.14 K, 35000 kPa	1313.5 ± 1	–
313.15 K, 170 kPa	–	0.1101 ± 0.0005
313.15 K, 351 kPa	1225.4 ± 0.8	–
313.15 K, 501 kPa	1226 ± 0.8	–
313.15 K, 1000 kPa	1227.8 ± 0.8	–
313.15 K, 2500 kPa	1233.1 ± 0.8	–
313.15 K, 5000 kPa	1241.3 ± 0.8	–
313.15 K, 10000 kPa	1256.4 ± 0.9	–
313.15 K, 15000 kPa	1269.9 ± 0.9	–
313.15 K, 19999 kPa	1282.1 ± 0.9	–
313.15 K, 25000 kPa	1293.4 ± 0.9	–
313.15 K, 30000 kPa	1303.8 ± 1	–
318.15 K, 174 kPa	–	0.1101 ± 0.0005
323.15 K, 177 kPa	–	0.1101 ± 0.0005
323.15 K, 274 kPa	–	0.0684 ± 0.0005
323.15 K, 500 kPa	1199.9 ± 0.8	–
323.15 K, 1000 kPa	1202 ± 0.8	–
323.15 K, 2500 kPa	1208 ± 0.8	–
323.15 K, 5000 kPa	1217.4 ± 0.8	–
323.15 K, 10000 kPa	1234.3 ± 0.9	–
323.15 K, 15000 kPa	1249.2 ± 0.9	–
323.15 K, 19999 kPa	1262.7 ± 0.9	–
323.15 K, 24999 kPa	1274.9 ± 0.9	–
323.15 K, 30000 kPa	1286.3 ± 1	–
323.15 K, 35000 kPa	1296.8 ± 1	–
328.15 K, 180 kPa	–	0.1101 ± 0.0004
328.15 K, 280 kPa	–	0.0684 ± 0.0004
333.14 K, 2500 kPa	1182 ± 0.8	–
333.14 K, 20000 kPa	1242.9 ± 0.9	–
333.14 K, 25003 kPa	1256.2 ± 0.9	–
333.14 K, 30002 kPa	1268.3 ± 0.9	–
333.14 K, 35000 kPa	1279.5 ± 1	–
333.15 K, 183 kPa	–	0.1101 ± 0.0004
333.15 K, 285 kPa	–	0.0684 ± 0.0003
333.15 K, 372 kPa	–	0.0508 ± 0.0002
333.15 K, 500 kPa	1172.6 ± 0.8	–
333.15 K, 1000 kPa	1175.1 ± 0.8	–
333.15 K, 5000 kPa	1192.7 ± 0.8	–
333.15 K, 10000 kPa	1211.7 ± 0.8	–
333.15 K, 15001 kPa	1228.2 ± 0.9	–
338.15 K, 186 kPa	–	0.1102 ± 0.0004
338.15 K, 290 kPa	–	0.0685 ± 0.0003
338.15 K, 380 kPa	–	0.0509 ± 0.0002
338.15 K, 415 kPa	–	0.0461 ± 0.0002
343.15 K, 189 kPa	–	0.1102 ± 0.0004
343.15 K, 296 kPa	–	0.0685 ± 0.0003
343.15 K, 387 kPa	–	0.0509 ± 0.0002
343.15 K, 423 kPa	–	0.0461 ± 0.0002
343.15 K, 458 kPa	–	0.0419 ± 0.0002
343.15 K, 700 kPa	1145 ± 0.8	–
343.15 K, 1000 kPa	1146.6 ± 0.8	–
343.15 K, 2500 kPa	1154.6 ± 0.8	–
343.15 K, 5000 kPa	1166.8 ± 0.8	–
343.15 K, 10000 kPa	1188.1 ± 0.8	–
343.15 K, 15000 kPa	1206.2 ± 0.9	–
343.15 K, 20003 kPa	1222.1 ± 0.9	–
343.15 K, 25000 kPa	1236.4 ± 0.9	–
343.15 K, 30001 kPa	1249.4 ± 0.9	–
343.15 K, 35002 kPa	1261.5 ± 1	–
348.15 K, 192 kPa	–	0.1102 ± 0.0004
348.15 K, 301 kPa	–	0.0685 ± 0.0003
348.15 K, 394 kPa	–	0.0509 ± 0.0002
348.15 K, 431 kPa	–	0.0462 ± 0.0002
348.15 K, 468 kPa	–	0.0419 ± 0.0002
348.15 K, 550 kPa	–	0.0349 ± 0.0002
353.15 K, 195 kPa	–	0.1102 ± 0.0004
353.15 K, 306 kPa	–	0.0685 ± 0.0003
353.15 K, 401 kPa	–	0.0509 ± 0.0002
353.15 K, 439 kPa	–	0.0462 ± 0.0002
353.15 K, 477 kPa	–	0.042 ± 0.0002
353.15 K, 562 kPa	–	0.0349 ± 0.0002
353.15 K, 639 kPa	–	0.0297 ± 0.0002
353.15 K, 801 kPa	1114.4 ± 0.8	–
353.15 K, 1000 kPa	1116.5 ± 0.8	–
353.15 K, 2500 kPa	1125.4 ± 0.8	–
353.15 K, 5000 kPa	1139.8 ± 0.8	–
353.15 K, 10000 kPa	1163.9 ± 0.8	–
353.15 K, 15000 kPa	1184.3 ± 0.8	–
353.15 K, 20000 kPa	1201.7 ± 0.9	–
353.15 K, 25000 kPa	1217.2 ± 0.9	–
353.15 K, 30000 kPa	1231.2 ± 0.9	–
353.15 K, 34999 kPa	1243.9 ± 0.9	–
358.15 K, 198 kPa	–	0.1103 ± 0.0004
358.15 K, 311 kPa	–	0.0685 ± 0.0003
358.15 K, 409 kPa	–	0.0509 ± 0.0002
358.15 K, 447 kPa	–	0.0462 ± 0.0002
358.15 K, 486 kPa	–	0.042 ± 0.0002
358.15 K, 573 kPa	–	0.0349 ± 0.0002
358.15 K, 654 kPa	–	0.0297 ± 0.0002
363.14 K, 20001 kPa	1180.8 ± 0.9	–
363.14 K, 35000 kPa	1226.2 ± 0.9	–
363.15 K, 202 kPa	–	0.1103 ± 0.0004
363.15 K, 316 kPa	–	0.0685 ± 0.0003
363.15 K, 416 kPa	–	0.0509 ± 0.0002
363.15 K, 455 kPa	–	0.0462 ± 0.0002
363.15 K, 494 kPa	–	0.042 ± 0.0002
363.15 K, 584 kPa	–	0.0349 ± 0.0002
363.15 K, 667 kPa	–	0.0297 ± 0.0002
363.15 K, 1200 kPa	1085.8 ± 0.8	–
363.15 K, 2500 kPa	1095.5 ± 0.8	–
363.15 K, 5000 kPa	1112.1 ± 0.8	–
363.15 K, 10000 kPa	1139.5 ± 0.8	–
363.15 K, 15001 kPa	1161.9 ± 0.8	–
363.15 K, 25001 kPa	1197.5 ± 0.9	–
363.15 K, 30000 kPa	1212.5 ± 0.9	–
368.15 K, 205 kPa	–	0.1103 ± 0.0004
368.15 K, 321 kPa	–	0.0685 ± 0.0003
368.15 K, 423 kPa	–	0.0509 ± 0.0002
368.15 K, 463 kPa	–	0.0462 ± 0.0002
368.15 K, 503 kPa	–	0.042 ± 0.0002
368.15 K, 594 kPa	–	0.0349 ± 0.0002
368.15 K, 680 kPa	–	0.0298 ± 0.0002
373.15 K, 208 kPa	–	0.1103 ± 0.0004
373.15 K, 326 kPa	–	0.0686 ± 0.0003
373.15 K, 430 kPa	–	0.0509 ± 0.0002
373.15 K, 470 kPa	–	0.0462 ± 0.0002
373.15 K, 512 kPa	–	0.042 ± 0.0002
373.15 K, 605 kPa	–	0.0349 ± 0.0002
373.15 K, 693 kPa	–	0.0298 ± 0.0002

— the NIST ThermoML archive (doi:10.1021/acs.jced.7b00841)
